# Results as given in ChEMBL document CHEMBL5608191, “Structure-based discovery of novel piperidine-biphenyl-DAPY derivatives as non-nucleoside reverse transcriptase inhibitors featuring improved potency, safety, and selectivity: From piperazine-biphenyl-DAPYs to piperidine-biphenyl-DAPYs” (Eur J Med Chem, 2024).
# Tests used:
# [1] = test system: Human immunodeficiency virus 1; experiment: Antiviral activity against wild-type HIV-1 IIIB infected in human MT4 cells assessed as protection against virus-induced cytopathic effect incubated for 5 days by MTT assay; format: functional, organism-based; settings: Human immunodeficiency virus 1, IIIB, MT4, 120 h
# [2] = Cytotoxicity against human MT4 cells assessed as reduction in cell viability incubated for 5 days by MTT assay; format: toxicity, cell-based; settings: time 5 day
# [3] = Selectivity index, ratio of CC50 for human MT4 cells to EC50 for wild-type HIV-1 IIIB infected in human MT4 cells; format: toxicity, cell-based; settings: read-out: Ratio CC50/EC50
# [4] = test system: Human immunodeficiency virus 1; experiment: Antiviral activity against HIV-1 harboring RT L100I mutant infected in human MT4 cells assessed as protection against virus-induced cytopathic effect incubated for 5 days by MTT assay; format: functional, organism-based; settings: Human immunodeficiency virus 1, MT4, 120 h
# [5] = test system: Human immunodeficiency virus 1; experiment: Antiviral activity against HIV-1 harboring RT K103N mutant infected in human MT4 cells assessed as protection against virus-induced cytopathic effect incubated for 5 days by MTT assay; format: functional, organism-based; settings: Human immunodeficiency virus 1, MT4, 120 h
# [6] = test system: Human immunodeficiency virus 1; experiment: Antiviral activity against HIV-1 harboring RT Y181C mutant infected in human MT4 cells assessed as protection against virus-induced cytopathic effect incubated for 5 days by MTT assay; format: functional, organism-based; settings: Human immunodeficiency virus 1, MT4, 120 h
# [7] = test system: Human immunodeficiency virus 1; experiment: Antiviral activity against HIV-1 harboring RT Y188L mutant infected in human MT4 cells assessed as protection against virus-induced cytopathic effect incubated for 5 days by MTT assay; format: functional, organism-based; settings: Human immunodeficiency virus 1, MT4, 120 h
# [8] = test system: Human immunodeficiency virus 1; experiment: Antiviral activity against HIV-1 harboring RT E138K mutant infected in human MT4 cells assessed as protection against virus-induced cytopathic effect incubated for 5 days by MTT assay; format: functional, organism-based; settings: Human immunodeficiency virus 1, MT4, 120 h
# [9] = target: Human immunodeficiency virus type 1 reverse transcriptase (Human immunodeficiency virus 1, UniProt Q72547); experiment: Inhibition of recombinant wild-type HIV-1 reverse transcriptase incubated for 40 mins by fluorescence based assay
# Cytochrome P450 1A2 = target: T1, Cytochrome P450 1A2 (Homo sapiens, UniProt P05177); experiment: Inhibition of CYP1A2 (unknown origin); format: ADME
# T1 sequence (P05177 whole entry): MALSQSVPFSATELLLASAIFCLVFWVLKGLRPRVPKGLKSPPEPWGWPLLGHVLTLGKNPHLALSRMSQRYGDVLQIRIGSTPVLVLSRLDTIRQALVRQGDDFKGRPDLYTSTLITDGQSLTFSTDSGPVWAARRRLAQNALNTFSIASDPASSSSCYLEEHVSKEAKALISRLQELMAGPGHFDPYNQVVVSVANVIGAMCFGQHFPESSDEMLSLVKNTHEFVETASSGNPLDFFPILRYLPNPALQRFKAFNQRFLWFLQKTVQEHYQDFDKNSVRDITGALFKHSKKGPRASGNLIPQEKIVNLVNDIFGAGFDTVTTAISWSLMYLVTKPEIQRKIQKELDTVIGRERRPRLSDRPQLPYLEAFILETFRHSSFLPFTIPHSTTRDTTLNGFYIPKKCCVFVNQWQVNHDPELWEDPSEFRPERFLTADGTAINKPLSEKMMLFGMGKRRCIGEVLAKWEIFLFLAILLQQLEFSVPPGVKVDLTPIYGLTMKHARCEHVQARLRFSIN
# Cytochrome P450 2C19 = Cytochrome P450 2C19 (Homo sapiens, UniProt P33261); experiment: Inhibition of CYP2C19 (unknown origin); format: ADME
# Cytochrome P450 2C19, sequence (P33261 whole entry): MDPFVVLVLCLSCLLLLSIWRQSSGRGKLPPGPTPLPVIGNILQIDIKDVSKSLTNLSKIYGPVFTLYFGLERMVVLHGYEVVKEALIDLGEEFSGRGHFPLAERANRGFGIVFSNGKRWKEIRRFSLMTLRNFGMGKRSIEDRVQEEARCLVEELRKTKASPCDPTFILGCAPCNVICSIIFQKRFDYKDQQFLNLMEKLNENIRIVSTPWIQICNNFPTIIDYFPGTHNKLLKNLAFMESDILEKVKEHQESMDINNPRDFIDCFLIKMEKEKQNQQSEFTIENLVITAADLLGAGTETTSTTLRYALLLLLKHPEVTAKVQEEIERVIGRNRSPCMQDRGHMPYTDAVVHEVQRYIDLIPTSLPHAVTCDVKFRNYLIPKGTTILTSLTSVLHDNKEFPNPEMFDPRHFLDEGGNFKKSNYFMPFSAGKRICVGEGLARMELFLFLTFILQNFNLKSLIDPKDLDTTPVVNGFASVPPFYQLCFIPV
# Cytochrome P450 2C9 = Cytochrome P450 2C9 (Homo sapiens, UniProt P11712); experiment: Inhibition of CYP2C9 (unknown origin); format: ADME
# Cytochrome P450 2C9, sequence (P11712 whole entry): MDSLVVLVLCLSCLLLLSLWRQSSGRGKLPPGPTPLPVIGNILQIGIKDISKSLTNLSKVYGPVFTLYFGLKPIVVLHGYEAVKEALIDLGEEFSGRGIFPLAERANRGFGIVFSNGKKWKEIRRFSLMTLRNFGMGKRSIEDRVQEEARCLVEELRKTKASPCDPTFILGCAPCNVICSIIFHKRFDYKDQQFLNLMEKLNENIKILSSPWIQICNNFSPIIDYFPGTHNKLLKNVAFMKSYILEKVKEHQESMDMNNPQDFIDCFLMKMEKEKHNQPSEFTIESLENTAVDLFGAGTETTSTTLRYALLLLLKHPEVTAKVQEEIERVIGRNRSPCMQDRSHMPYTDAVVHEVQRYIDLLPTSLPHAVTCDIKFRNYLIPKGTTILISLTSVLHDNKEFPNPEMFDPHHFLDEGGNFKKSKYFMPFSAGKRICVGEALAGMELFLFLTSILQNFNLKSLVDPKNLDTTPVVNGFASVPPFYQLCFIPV
# Cytochrome P450 2D6 = Cytochrome P450 2D6 (Homo sapiens, UniProt P10635); experiment: Inhibition of CYP2D6 (unknown origin); format: ADME
# Cytochrome P450 2D6, sequence (P10635 whole entry): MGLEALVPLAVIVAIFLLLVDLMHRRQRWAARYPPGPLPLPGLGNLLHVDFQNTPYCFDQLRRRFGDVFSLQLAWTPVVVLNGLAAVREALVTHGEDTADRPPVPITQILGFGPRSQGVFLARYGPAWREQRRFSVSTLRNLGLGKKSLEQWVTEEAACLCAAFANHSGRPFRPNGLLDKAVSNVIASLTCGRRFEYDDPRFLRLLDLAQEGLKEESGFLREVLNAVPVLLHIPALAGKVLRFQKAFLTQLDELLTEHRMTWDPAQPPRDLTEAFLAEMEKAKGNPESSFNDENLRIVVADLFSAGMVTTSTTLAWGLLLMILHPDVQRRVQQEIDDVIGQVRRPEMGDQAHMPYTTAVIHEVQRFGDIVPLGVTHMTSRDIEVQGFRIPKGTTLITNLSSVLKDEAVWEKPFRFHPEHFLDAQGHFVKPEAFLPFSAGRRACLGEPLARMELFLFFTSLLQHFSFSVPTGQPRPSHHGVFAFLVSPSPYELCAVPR
# Cytochrome P450 3A4 [10] = target: T2, Cytochrome P450 3A4 (Homo sapiens, UniProt P08684); experiment: Inhibition of CYP3A4 (unknown origin) using midazolam as substrate; format: ADME
# T2 sequence (P08684 whole entry): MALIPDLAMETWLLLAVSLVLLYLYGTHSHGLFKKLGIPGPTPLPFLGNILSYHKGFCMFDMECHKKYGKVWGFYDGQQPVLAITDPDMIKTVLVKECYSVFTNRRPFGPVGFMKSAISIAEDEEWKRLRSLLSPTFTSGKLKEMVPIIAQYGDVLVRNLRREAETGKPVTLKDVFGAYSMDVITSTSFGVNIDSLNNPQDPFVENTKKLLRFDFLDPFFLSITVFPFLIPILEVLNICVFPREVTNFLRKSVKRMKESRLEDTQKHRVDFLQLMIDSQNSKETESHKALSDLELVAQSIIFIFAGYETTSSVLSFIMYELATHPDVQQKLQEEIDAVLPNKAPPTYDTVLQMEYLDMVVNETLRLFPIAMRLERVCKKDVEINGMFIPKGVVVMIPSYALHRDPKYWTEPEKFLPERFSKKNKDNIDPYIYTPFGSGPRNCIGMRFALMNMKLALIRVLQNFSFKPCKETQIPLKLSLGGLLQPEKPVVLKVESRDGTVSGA
# Cytochrome P450 3A4 [11] = target: T2, Cytochrome P450 3A4; experiment: Inhibition of CYP3A4 (unknown origin) using testosterone as substrate; format: ADME
# [12] = target: Voltage-gated inwardly rectifying potassium channel KCNH2 (Homo sapiens, UniProt Q12809); experiment: Inhibition of hERG expressed in CHO cells; format: toxicity, cell-based
# Voltage-gated inwardly rectifying potassium channel KCNH2, sequence (Q12809 whole entry): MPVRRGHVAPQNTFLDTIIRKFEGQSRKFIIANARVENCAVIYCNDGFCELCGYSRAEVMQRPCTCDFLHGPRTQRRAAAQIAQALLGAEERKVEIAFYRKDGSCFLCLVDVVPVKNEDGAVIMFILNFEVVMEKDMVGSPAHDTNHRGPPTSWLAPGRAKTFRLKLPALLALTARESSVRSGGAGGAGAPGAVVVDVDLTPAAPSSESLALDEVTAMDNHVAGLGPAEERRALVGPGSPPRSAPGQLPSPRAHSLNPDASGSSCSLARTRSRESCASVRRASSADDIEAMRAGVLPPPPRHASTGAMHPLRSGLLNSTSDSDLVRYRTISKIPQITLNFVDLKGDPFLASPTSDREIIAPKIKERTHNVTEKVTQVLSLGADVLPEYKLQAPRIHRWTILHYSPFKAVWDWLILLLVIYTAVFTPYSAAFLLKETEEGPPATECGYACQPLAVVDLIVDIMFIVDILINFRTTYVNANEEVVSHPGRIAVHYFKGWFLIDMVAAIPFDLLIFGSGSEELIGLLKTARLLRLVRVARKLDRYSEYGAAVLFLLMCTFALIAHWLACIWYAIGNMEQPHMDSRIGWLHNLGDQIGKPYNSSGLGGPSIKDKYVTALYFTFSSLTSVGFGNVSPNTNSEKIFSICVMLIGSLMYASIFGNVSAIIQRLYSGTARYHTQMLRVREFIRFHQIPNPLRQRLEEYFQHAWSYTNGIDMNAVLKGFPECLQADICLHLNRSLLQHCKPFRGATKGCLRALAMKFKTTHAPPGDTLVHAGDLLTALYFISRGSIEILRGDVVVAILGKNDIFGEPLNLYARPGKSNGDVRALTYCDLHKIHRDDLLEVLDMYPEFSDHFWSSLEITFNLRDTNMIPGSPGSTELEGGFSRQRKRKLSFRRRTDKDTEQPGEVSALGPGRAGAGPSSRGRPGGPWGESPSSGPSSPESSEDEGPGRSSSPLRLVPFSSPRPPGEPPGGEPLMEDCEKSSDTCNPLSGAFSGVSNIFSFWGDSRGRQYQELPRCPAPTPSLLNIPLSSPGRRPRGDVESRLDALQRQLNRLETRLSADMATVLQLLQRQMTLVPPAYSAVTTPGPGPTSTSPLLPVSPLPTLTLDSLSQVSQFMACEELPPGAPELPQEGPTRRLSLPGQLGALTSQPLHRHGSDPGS
# [13] = Acute toxicity in mouse assessed as animal death treated for 14 days; settings: in vivo, 336 h, time 14 day
# [14] = Acute toxicity in mouse assessed as toxic symptoms treated for 14 days; settings: in vivo, 336 h, time 14 day
# [15] = Acute toxicity in mouse assessed as change in body weight treated for 14 days; settings: in vivo, 336 h, time 14 day
# [16] = Acute toxicity in mouse assessed as apparent pathological damage in heart treated for 14 days by H and E staining based analysis; format: tissue-based; settings: in vivo, 336 h, time 14 day
# [17] = Acute toxicity in mouse assessed as apparent pathological damage in liver treated for 14 days by H and E staining based analysis; format: tissue-based; settings: in vivo, 336 h, time 14 day
# [18] = Acute toxicity in mouse assessed as apparent pathological damage in spleen treated for 14 days by H and E staining based analysis; format: tissue-based; settings: in vivo, 336 h, time 14 day
# [19] = Acute toxicity in mouse assessed as apparent pathological damage in lung treated for 14 days by H and E staining based analysis; format: tissue-based; settings: in vivo, 336 h, time 14 day
# [20] = Acute toxicity in mouse assessed as apparent pathological damage in kidney treated for 14 days by H and E staining based analysis; settings: in vivo, 336 h, time 14 day
# [21] = Acute toxicity in mouse assessed as apparent pathological damage in brain treated for 14 days by H and E staining based analysis; format: tissue-based; settings: in vivo, 336 h, time 14 day
# [22] = Acute toxicity in mouse assessed as drug tolerance at 2 g/kg treated for 14 days; settings: in vivo, 2000 mg/kg, 336 h, time 14 day
# [23] = Solubility of compound in phosphate buffer at pH 2 by HPLC analysis; format: physicochemical
# [24] = Solubility of compound in phosphate buffer at pH 7 by HPLC analysis; format: physicochemical
# [25] = Solubility of compound in phosphate buffer at pH 7.4 by HPLC analysis; format: physicochemical
# [26] = Solubility of compound in water by HPLC analysis; format: physicochemical
# Cytochrome P450 3A4 [27] = target: T2, Cytochrome P450 3A4; experiment: Inhibition of CYP3A4 (unknown origin); format: ADME
smiles,measurement,setting,value
CCOC(=O)c1cnc(NC2CCN(Cc3ccc(C(=O)NC)cc3)CC2)nc1Oc1c(C)cc(-c2ccc(C#N)cc2)cc1C,EC50,[1],6 nM
same,CC50 at 120 h,[2],> 202 µM
same,selectivity ratio,[3],> 33100
same,EC50,[4],29 nM
same,EC50,[5],7 nM
same,EC50,[6],38 nM
same,EC50,[7],63 nM
same,EC50,[8],47 nM
same,IC50,[9],713 nM
same,IC50,Cytochrome P450 1A2,> 50 µM
same,IC50,Cytochrome P450 2C19,> 50 µM
same,IC50,Cytochrome P450 2C9,> 50 µM
same,IC50,Cytochrome P450 2D6,> 50000 nM
same,IC50,Cytochrome P450 3A4 [10],> 50 µM
same,IC50,Cytochrome P450 3A4 [11],> 50 µM
same,IC50,[12],25.9 µM
same,Activity,[13],Non-Toxic
same,Activity,[14],Non-Toxic
same,Activity,[15],Non-Toxic
same,Activity,[16],Non-Toxic
same,Activity,[17],Non-Toxic
same,Activity,[18],Non-Toxic
same,Activity,[19],Non-Toxic
same,Activity,[20],Non-Toxic
same,Activity,[21],Non-Toxic
same,Activity,[22],Non-Toxic
same,solubility,[23],109 µg/mL
same,solubility,[24],< 1 µg/mL
same,solubility,[25],< 1 µg/mL
same,solubility,[26],< 1 µg/mL
COc1ccc2c(c1)[C@]13CCCC[C@@H]1[C@H](C2)N(C)CC3 [DEXTROMETHORPHAN],IC50,Cytochrome P450 2D6,242 nM
C[C@]12CC[C@H]3[C@@H](CCC4=CC(=O)CC[C@@]43C)[C@@H]1CC[C@@H]2O [TESTOSTERONE],IC50,Cytochrome P450 3A4 [27],37 nM
